Each structure is given as a SMILES string.

The test system of test [1] is SNL Rat Model of Allodynic Neuropathic Pain. Conditions: background statement on the model, cited from earlier work.
The test system of a further test is IL-2. In words: IL-2 levels in tissues from SNL rats (Luminex cytokine analysis). In kind it is in vivo, rat. The settings on record: for IL-2 level, Ipsilateral DRGL4 / IL-2 level, Ipsilateral DRGL5, L6 / IL-2 level, Ipsilateral spinal cord / IL-2 level, Serum: 2.4 mg/kg/day via osmotic minipump, mean ± SEM. The method, then:
(§1) The SNL (or Chung) Model in the rat is an accepted standard animal model of neuropathic pain and is thought to mimic the human causalgia condition with respect to symptoms (guarding behavior, mechanical allodynia) and alleviation by pharmacological agents. […] The SNL Model is performed by tightly ligating the L-5 and L-6 spinal nerves, which produces tactile allodynia or sensitivity to light touch as described (Kim and Chung, 1992). Male sprague-dawley rats (100-120 grams; Charles River, Wilmington, Mass.) were anesthetized through inhalation of an isoflurane/oxygen mix. The surgical site was shaved and prepared with betadine. An incision was made from the thoracic vertebra XIII toward down the sacrum. The muscle was separated from the spinal vertebra (left side) at the L4-S2 levels. The L6 vertebra was located and then the transverse process was carefully removed with a small rongeur to visually identify the L4-L6 spinal nerves. The L5 and L6 spinal nerves was isolated and tightly ligated with 6-0 silk thread. A complete homeostasis was confirmed and then the wound was sutured. The duration of the surgery was approximately 20 minutes. A small amount of antibiotic ointment was applied to the incised area and the animals were transferred to a plastic recovery cage under a regulated heat-temperature lamp. Animals were not given any topical or local anesthetics post-operatively because they will inhibit the development of the pain syndrome, which is the phenomenon to be studied.
Compound A was formulated in 50% DMSO (Sigma, St. Louis, Mo.). This solution was loaded into the osmotic minipumps (Model 1007D, Alzet Corp., Palo Alto, Calif.) set to deliver the drug at a rate of 0.5 ul/hr resulting in a final dose of 2.4 mg/kg/day. The vehicle for these studies is 50% DMSO administered via osmotic minipumps at a rate of 0.5 ul/hr/kg.
The levels of cytokines were measured with a sensitive, fluorescent multiplex immunobead assay (Luminex; Biosource-Invitrogen, Carlsbad, Calif.). 9 plex rat cytokine/chemokine (RCYTO-80K-09) panel from Millipore was used. Cytokine levels in samples were analyzed by using the corresponding Millipore cytokine Beadmate pairs. For the Luminex assay, a 96-well filter plate (Millipore) was pre-wetted with 25 μl of Beadlyte cytokine assay buffer. A vacuum manifold (Millipore, Billerica, Mass.) was used to aspirate the buffer from the wells. 25 μl of sample was placed in each well. The beads (25 μl) were pipetted into the wells. Standard curves for each cytokine were generated in duplicate by placing 25 μl of the appropriate dilution of standards purchased from Millipore. The plate was incubated overnight with gentle shaking in the dark at 4° C. Beads were washed with Beadlyte cytokine assay buffer (Millipore) and wash buffer was eliminated using a vacuum manifold. 25 μl of the appropriate biotin-conjugated secondary antibody (Millipore) was added to each well for 90 minutes at room temperature with gentle shaking. Beads were incubated with Beadlyte streptavidin-phycoerythrin (1:25 dilution in Beadlyte assay buffer) for 30 minutes at room temperature with gentle shaking. Beads were washed, resuspended in 125 μl of Beadlyte buffer, and analyzed by Luminex 100 instrument (Luminex Corporation, Austin, Tex.). The mean fluorescence intensities obtained from 50 beads per cytokine minimum were analyzed using Upstate Beadview software. Standard curves were generated (8 data points including a zero standard run in duplicate) using a four- or five-parametric logistic curve. R-squared values were between 0.99 and 1. Data are expressed in pg/ml or ng/ml values.

Test [2] concerns SNL Rat Model of Allodynic Neuropathic Pain. In words: Allodynia reversal (Von Frey) in the SNL Rat Model of Allodynic Neuropathic Pain. In kind it is in vivo. The settings on record: SNL rats, 3 mg/kg BID SC alone. Here is the method: as §1
The allodynia is quantitated in the animals having received the Chung surgery by stimulation with a series of 8 Von Frey hairs on the mid planter area of the surgical hind paw in the up-down manner as described in the literature (Dixon, 1980). Von Frey hairs are applied in an up-down manner depending on the response until the 50% threshold is established. The Von Frey hairs are applied to the plantar surface of the surgical paw with just enough force to bend them. A positive response is recorded if the paw is sharply withdrawn. Eight Von Frey hairs were used 3.61, 3.84, 4.08, 4.31, 4.56, 4.74, 4.93 and 5.18 yielding a gram force of 0.25-15 grams.
[formula] • Mean±SEM: • Mean=average of allodynia reversals • SEM=STDEV/SQ ROOT of n
Testing with compounds is done 2-3 weeks after surgery to establish stable allodynia. In all experimental animals, baseline measurements were taken prior to drug administration and then at 24 hours and 5-23 days post dosing with Alzet osmotic minipump. The investigator was blinded to the identity of the drug groups. The % allodynia reversal is calculated as: [(Postdrug threshold−Predrug threshold)/(15-Predrug threshold)]×100.
Compound B was formulated in 50% DMSO (dimethyl sulfoxide; Sigma, St. Louis, Mo.). This solution was dosed orally TID at a dose of 0.3 or 1 mg/kg. For dosing in the osmotic minipumps (Model 1007D, Alzet Corp., Palo Alto, Calif.) the compound was loaded onto the pumps set to deliver a final dose of either 1 or 3 mg/kg/day. The vehicle for these studies is 50% DMSO.
Compound C was formulated first in 100% DMSO (Sigma, St. Louis, Mo.), then diluted down in 30% DMSO for a 10 mg/ml solution; 15% DMSO for a 3 mg/ml solution and further dilutions were made in water. The compound was dosed orally TID at a dose of either 0.3 or 1 mg/kg for a total daily dose of 1 or 3 mg/kg/day, respectively.

Where [3] appears, read: Table 3 study, mean % MPE ± SEM.

`NCC1(CC(=O)O)CCCCC1` [Gabapentin]: the alleviation of allodynia in test [1] (30 mg/kg p.o.) is recorded as 50%.

With `CN1CC[C@]23c4c5ccc(O)c4O[C@H]2[C@@H](O)C=C[C@H]3[C@H]1C5` [morphine], the “alleviation of tactile allodynia” value in test [1] is recorded as “does not alleviate”.

Take `OCCNC(=S)NCc1cccc(Cl)c1F` [Compound A]: in the test on IL-2 (24 hours), the “IL-2 level, Ipsilateral DRGL4” value turned out to be 101.63 ± 20.55 pg/mL; the “IL-2 level, Ipsilateral DRGL5, L6” value stood at 211 ± 33.72 pg/mL; the “IL-2 level, Ipsilateral spinal cord” value is 345 ± 19.34 pg/mL; the “IL-2 level, Serum” value is 978 ± 77.13 pg/mL. Moreover, in the test on IL-2 (5 days), the “IL-2 level, Ipsilateral DRGL4” value worked out at 69.52 ± 9.42 pg/mL; the “IL-2 level, Ipsilateral DRGL5, L6” value amounted to 138.35 ± 22.59 pg/mL; the “IL-2 level, Ipsilateral spinal cord” value was determined as 351.75 ± 17.19 pg/mL; the “IL-2 level, Serum” value is 380.25 ± 61.67 pg/mL. Also, the “spinal nerve ligation surgery-induced increase of IL-2 levels” value in the test on IL-2 (result in words) is “attenuated”.

Take `C=CC[C@@H]1/C=C(\C)C[C@H](C)C[C@H](OC)[C@H]2O[C@@](O)(C(=O)C(=O)N3CCCC[C@H]3C(=O)O[C@H](/C(C)=C/[C@@H]3CC[C@@H](O)[C@H](OC)C3)[C@H](C)[C@@H](O)CC1=O)[C@H](C)C[C@@H]2OC` [FK506, reference compound]: in test [2] (Table 2 study), the “% Allodynia Reversal 24 hr post” value is reported as −5.77 ± 3.43% and the “% Allodynia Reversal 7 day post” value is −6.39 ± 4.85%. For the same molecule, in test [2] (setting [3]), the “% Allodynia Reversal 24 hr post” value is −0.53 ± 6.21% and the “% Allodynia Reversal 23 day post” value is given as 2.01 ± 5.86%.

Values taken from patent US10251865B2, “Method of activating regulatory T cells with alpha-2B adrenergic receptor agonists” (Allergan, Inc., priority 2010, dated 2019).
